Assay results taken from article PMC12655551, “Design, Synthesis, and Evaluation of Pyrrole-Based Selective MAO-B Inhibitors with Additional AChE Inhibitory and Neuroprotective Properties Identified via Virtual Screening” (Pharmaceuticals, 2025).
Read-outs that look alike come from different tables or passages of the source.

Columns and labels:
AChE = molecular target: T1, AChE (Electrophorus electricus, UniProt O42275); assay: biochemical; type: biochemical; conditions: for inhibition at 200 µM: 200 µM compound; for IC50: means ± SD of three experiments
T1 construct: purchased Sigma-Aldrich, Hamburg, Germany
T1 sequence (O42275 24-633): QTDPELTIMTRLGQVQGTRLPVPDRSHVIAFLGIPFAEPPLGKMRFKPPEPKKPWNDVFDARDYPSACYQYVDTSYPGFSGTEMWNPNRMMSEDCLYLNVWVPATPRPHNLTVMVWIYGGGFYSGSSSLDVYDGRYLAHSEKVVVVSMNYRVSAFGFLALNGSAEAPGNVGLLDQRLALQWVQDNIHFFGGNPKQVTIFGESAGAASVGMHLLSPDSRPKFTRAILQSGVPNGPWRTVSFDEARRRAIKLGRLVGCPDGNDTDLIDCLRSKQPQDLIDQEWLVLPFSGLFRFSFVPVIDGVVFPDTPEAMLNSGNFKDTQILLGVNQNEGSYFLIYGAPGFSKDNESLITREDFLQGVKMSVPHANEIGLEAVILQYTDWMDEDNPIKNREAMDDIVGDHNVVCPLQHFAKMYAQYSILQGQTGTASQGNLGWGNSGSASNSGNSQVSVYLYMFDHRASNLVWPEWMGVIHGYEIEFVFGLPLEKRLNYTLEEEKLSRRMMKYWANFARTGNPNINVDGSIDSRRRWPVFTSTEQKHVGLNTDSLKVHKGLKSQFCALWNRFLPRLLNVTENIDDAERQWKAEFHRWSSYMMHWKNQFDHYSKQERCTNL
Experimental: AChE and BChE inhibitory activity of the newly synthesized pyrrole-based compounds was measured using the microplate assay described by Ellman et al. with the modifications added by López et al.. The compounds were tested at concentrations between 0.01 and 200 μM. First, they were dissolved in phosphate buffer (PBS) (8 mM K2HPO4, 2.3 mM NaH2PO4, 0.15 M NaCl, pH 7.5), assisted by the addition of no more than 5% MeOH. Then, they were serially diluted with PBS to provide the concentration range needed. Acetylcholinesterase from Electrophorus electricus and butyrylcholinesterase from equine serum (Sigma-Aldrich, Hamburg, Germany) were used with a substrate solution of 5,5′-dithiobis(2-nitrobenzoic acid) (DTNB) with acetylthiocholine iodide (ATCI) or butyrylthiocholine iodide (BTCI), respectively (0.04 M Na2HPO4, 0.2 mM DTNB, 0.24 mM ATCI or BTCI, pH 7.5). A total of 50 μL of AChE or BChE (0.25 U/mL, in PBS) and 50 μL of the tested compound solution were added to the wells. Incubation of the plates was performed at room temperature for 30 min. Then, 100 μL of substrate solution was added to start the enzymatic reaction. […] Enzyme activity was calculated as an inhibition percentage compared to an assay including buffer instead of an inhibitor.

[1] = system: isolated rat brain microsomes; assay: Pro-oxidant effect of compounds alone on isolated rat brain microsomes (MDA); type: cell-based; conditions: compound alone, 100 μM, vs non-treated microsomes
Experimental: (§1) Two types of buffers were used for the isolation of the rat brain synaptosomes and mitochondria. Buffer A was 5 mM HEPES and 0.32 M Sucrose; Buffer B was 290 mM NaCl, 0.95 mM MgCl2 × 2H2O, 10 mM KCl, 2.4 mM CaCl2 × 2H2O, 2.1 mM NaH2PO4, 44 mM HEPES, 13 mM D-Glucose. For the gradient centrifugation, Percoll reagent was used. A stock solution of 90% Percoll was used to prepare 16%, 10% and 7.5% solutions. All the solutions were used as described below. Immediately after harvesting, synaptosomes, microsomes, and mitochondria were incubated with the exam compounds for 1 h. For assessing the possible neurotoxicity of the most MAOB active compounds, the sub-cellular fractions were incubated with 100 µM of them, and for evaluating their possible neuroprotective and antioxidant activities in different models of neurotoxicity, the sub-cellular fractions were incubated with 50µM of them. The protein measurement of all the sub-cellular fractions was made by the method of Lowry et al., 1951 [57].
The brain was homogenized in 9 vol. of 0.1 M Tris buffer containing 0.1 mM Dithiothreitol, 0.1 mM Phenylmethylsulfonyl fluoride, 0.2 mM EDTA, 1.15% KCl, and 20% (v/v) glycerol at pH 7.4. The homogenate was centrifuged twice at 17,000× g for 30 min. […]
The quantity of the lipid peroxidation product MDA was assessed using the method described by Deby and Goutier.

[2] = system: isolated rat brain synaptosomes; assay: Neurotoxicity of compounds alone on isolated rat brain synaptosomes (MTT viability, GSH); type: cell-based; conditions: compound alone, 100 μM, vs non-treated synaptosomes
Experimental: as §1
The synaptosomes were prepared from rat brains by multiple sub-cellular fractionation using a Percoll gradient.
After the incubation, the synaptosomes were centrifuged three times at 15,000× g for 1 min. MTT-test was performed to determine synaptosomal vitality by the method described by Mungarro-Menchaca et al..
The level of GSH was determined by measuring the non-protein SH-groups after precipitation of the proteins with trichloroacetic acid (TCA). The presence of thiols in the supernatant was determined using Elmman’s reagent. The resulting yellow color was measured spectrophotometrically (λ = 412 nm).

[3] = molecular target: T2, recombinant human MAO-A (hMAOA) (Homo sapiens, UniProt P21397); assay: MAO-A inhibition, fluorometric Amplex UltraRed assay; type: biochemical; conditions: for inhibition at 1 µM: read-out: Inhibition Activity 1 µM MAO-A
T2 sequence (P21397 1-527): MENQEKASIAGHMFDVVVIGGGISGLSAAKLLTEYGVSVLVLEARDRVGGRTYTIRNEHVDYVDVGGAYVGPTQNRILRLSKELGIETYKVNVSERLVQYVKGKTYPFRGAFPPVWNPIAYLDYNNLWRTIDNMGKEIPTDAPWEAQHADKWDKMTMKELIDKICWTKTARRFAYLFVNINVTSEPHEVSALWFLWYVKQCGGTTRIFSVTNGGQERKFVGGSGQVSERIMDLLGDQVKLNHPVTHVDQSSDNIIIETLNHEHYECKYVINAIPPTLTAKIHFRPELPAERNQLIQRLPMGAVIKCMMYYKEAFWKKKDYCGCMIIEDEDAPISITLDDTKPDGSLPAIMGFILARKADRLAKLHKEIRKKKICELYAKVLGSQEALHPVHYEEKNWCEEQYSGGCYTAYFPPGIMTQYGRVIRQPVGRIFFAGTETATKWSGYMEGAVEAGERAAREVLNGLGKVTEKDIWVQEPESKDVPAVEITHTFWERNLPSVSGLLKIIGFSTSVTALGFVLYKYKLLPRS
Experimental: Monoamine oxidase (MAO) activity for both recombinant human MAO-A (hMAOA) and MAO-B (hMAOB) was assessed using a fluorometric assay based on the Amplex® UltraRed reagent. This method, originally reported by Bautista-Aguilera et al. and later adapted with minor changes by Kasabova-Angelova et al., detects hydrogen peroxide or peroxidase activity present in enzymes or biological samples. In this assay, Amplex® Red reacts in a 1:1 molar ratio with hydrogen peroxide in the presence of peroxidase, producing the red-fluorescent compound resorufin. Due to resorufin’s strong extinction coefficient (58,000 ± 5000 cm^−1·M^−1), measurements could be accurately taken using either fluorometric or spectrophotometric methods. […] The control conditions included the use of purified hMAOA or hMAOB in reaction buffer, enzyme solutions with hydrogen peroxide, and buffer alone. All the test compounds were initially prepared at a 1 µM final concentration. These compounds were combined with either hMAOA or hMAOB and loaded into a 96-well plate (with eight replicates per test compound), followed by incubation for 30 min at 37 °C in the dark. Subsequently, a 50 µL detection mix was added to each well. This mix contained Amplex® Red, horseradish peroxidase (HRP), and tyramine substrate, all prepared in a reaction buffer. As this enzymatic reaction proceeded continuously, the fluorescence signal was recorded every 30 min (at 0, 30, 60, 90, 120, and 150 min) to track enzymatic kinetics.

Row | SMILES | inhibition at 200 µM (AChE) [%] | IC50 (AChE) [µM] | increase of MDA production compared to the control [1] [%] | decrease of GSH level compared to the control [2] [%] | decrease of synaptosomal viability compared to the control [2] [%] | inhibition at 1 µM ([3]; 1 µM compound) [%] | IC50 ([3]; means ± SD of three experiments, read-out: MAO-A IC50) [µM] | fold lower AChE inhibition potency compared to EM-DC-2 (AChE; ratio of AChE potencies) | IC50 [3] [µM] | inhibition at 1 µM [3] [%]
1 | Cc1ccc(C)n1-c1ccc(CC(=O)O)cc1 [EM-DC-27, [4-(2,5-dimethyl-1H-pyrrol-1-yl)phenyl]acetic acid] | 26.5 ± 2.36 | > 200 | 40 | 30 | 25 | 99 ± 7.1 | > 100 | – | – | –
2 | Cc1ccc(C)n1C(Cc1cnc[nH]1)C(=O)O (stereo not drawn) [EM-DC-19, 2-(2,5-dimethyl-1H-pyrrol-1-yl)-3-(2H-imidazol-4-yl)propanoic acid] | 73.98 ± 0.59 | 76.2 ± 6.12 | 20 | 30 | 25 | – | – | approximately 100 fold | > 100 | 99 ± 6.1
